Results as given in ChEMBL document CHEMBL5338807, “Design and Synthesis of Bouchardatine Derivatives as a Novel AMP-Activated Protein Kinase Activator for the Treatment of Colorectal Cancer” (J Med Chem, 2023).
The source made the active and inactive calls. The rule behind the calls is not given here.

Columns and labels:
Type in all cases: functional, cell-based
RKO [1] = experiment: Antiproliferative activity against human RKO cells assessed as reduction in cell viability incubated for 24 hrs
RKO [2] = experiment: Inhibition of cell migration of human RKO cells at 1 uM incubated for 48 hrs by wound healing assay
RKO [3] = experiment: Effect on metabolism in human RKO cells assessed as activation of oxidative phosphorylation at 1 uM measured after 24 hrs by seahorse analysis
RKO [4] = experiment: Antiproliferative activity against human RKO cells assessed as inhibition of colony formation at 1 uM measured after 7 days by crystal violet staining based assay; conditions: time 7.0 day
RKO [5] = experiment: Effect on energy metabolism in human RKO cells assessed as decrease in ATP production incubated for 24 hrs by luminescence based analysis
RKO [6] = experiment: Effect on metabolism in human RKO cells assessed as inhibition of oxidative phosphorylation at 50 mM measured after 24 hrs by seahorse analysis

Row | SMILES | IC50 (RKO [1]) | other results
1 | CN(C)CCCNc1nc(-c2[nH]c3ccc(F)cc3c2C=O)nc2ccccc12 | 1.9 µM | 
2 | O=Cc1c(-c2nc(NC(C3CC3)C3CC3)c3ccccc3n2)[nH]c2ccccc12 | 6 µM | 
3 | CCC(=O)Nc1nc(-c2[nH]c3ccccc3c2C=O)nc2ccccc12 | > 10 µM | 
4 | CC(=O)c1c(-c2nc(NCCN(C)C)c3ccccc3n2)[nH]c2ccccc12 | > 10 µM | 
5 | O=Cc1c(-c2nc(NCCN3CCCC3)c3ccccc3n2)[nH]c2ccccc12 | 1.1 µM | 
6 | COC(=O)c1c(-c2nc(NCCN3CCCC3)c3ccccc3n2)[nH]c2ccccc12 | 6.1 µM | 
7 | CC(=O)c1c(-c2nc(NCCCN(C)C)c3ccccc3n2)[nH]c2ccccc12 | > 10 µM | 
8 | O=Cc1c(-c2nc(NCCN3CCCC3)c3ccccc3n2)[nH]c2ccc(Cl)cc12 | 2.5 µM | 
9 | O=Cc1c(-c2nc3ccccc3c(=O)[nH]2)[nH]c2ccccc12 | > 10 µM | inhibition (RKO [2]): Active; Activity (RKO [3]): Active; inhibition (RKO [4]): Active
10 | Cc1c(-c2nc(N(C)CCCN(C)C)c3ccccc3n2)[nH]c2ccccc12 | > 10 µM | 
11 | Cc1ccc(CCNc2nc(-c3[nH]c4ccccc4c3C=O)nc3ccccc23)cc1 | 1.8 µM | 
12 | O=Cc1c(-c2nc(NCCNC(=O)C3CC3)c3ccccc3n2)[nH]c2ccccc12 | 1.2 µM | 
13 | CN(C)CCNc1nc(-c2[nH]c3ccc(Cl)cc3c2C=O)nc2ccccc12 | 5.3 µM | 
14 | O=Cc1c(-c2nc(NCCc3ccc(C(F)(F)F)cc3)c3ccccc3n2)[nH]c2ccccc12 | 4.2 µM | 
15 | CCCC(=O)Nc1nc(-c2[nH]c3ccccc3c2C=O)nc2ccccc12 | > 10 µM | 
16 | O=Cc1c(-c2nc(NCCN3CCCC3)c3ccccc3n2)[nH]c2ccc(F)cc12 | 2.1 µM | 
17 | CN(C)C(=N)NC(=N)N |  | Activity (RKO [5]): Active; inhibition (RKO [6]): Active
18 | O=Cc1c(-c2nc(Nc3ccc(N4CCCCC4)cc3)c3ccccc3n2)[nH]c2ccccc12 | > 10 µM | 
19 | O=Cc1c(-c2nc(NC3CC3)c3ccccc3n2)[nH]c2ccccc12 | 3.9 µM | 
20 | CN(C)CCNc1nc(-c2[nH]c3ccc(F)cc3c2C=O)nc2ccccc12 | 1.7 µM | 
21 | O=Cc1c(-c2nc(NCCCC(=O)N3CCCC3)c3ccccc3n2)[nH]c2ccccc12 | 8.7 µM | 
22 | Cc1c(-c2nc(NCCN3CCCCC3)c3ccccc3n2)[nH]c2ccccc12 | > 10 µM | 
23 | CCCS(=O)(=O)Nc1nc(-c2[nH]c3ccccc3c2C=O)nc2ccccc12 | > 10 µM | 
24 | COc1ccc2[nH]c(-c3nc(NCCN4CCCC4)c4ccccc4n3)c(C=O)c2c1 | 1.6 µM | 
25 | CN(C)CCCNc1nc(-c2[nH]c3ccccc3c2C(=O)O)nc2ccccc12 | 5.3 µM | 
26 | CC(C)(C)OC(=O)NCCCNc1nc(-c2[nH]c3ccccc3c2C=O)nc2ccccc12 | 5.4 µM | 
27 | CN(C)CCCNc1nc(-c2[nH]c3ccccc3c2C=O)nc2ccccc12 | 1.7 µM | inhibition (RKO [2]): Active; Activity (RKO [3]): Active; inhibition (RKO [4]): Active
